Source: PMC7663272, “Discovery of Tricyclic Pyranochromenone as Novel Bruton’s Tyrosine Kinase Inhibitors with In Vivo Antirheumatic Activity” (International Journal of Molecular Sciences, 2020)

Legend:
CYP1A2 = biological target: T1, CYP1A2 (Homo sapiens, UniProt P05177); assay: P450-Glo CYP inhibition assay, CYP1A2; type: in vitro ADME
T1 construct: purchased Promega V9770
T1 sequence (P05177 1-516): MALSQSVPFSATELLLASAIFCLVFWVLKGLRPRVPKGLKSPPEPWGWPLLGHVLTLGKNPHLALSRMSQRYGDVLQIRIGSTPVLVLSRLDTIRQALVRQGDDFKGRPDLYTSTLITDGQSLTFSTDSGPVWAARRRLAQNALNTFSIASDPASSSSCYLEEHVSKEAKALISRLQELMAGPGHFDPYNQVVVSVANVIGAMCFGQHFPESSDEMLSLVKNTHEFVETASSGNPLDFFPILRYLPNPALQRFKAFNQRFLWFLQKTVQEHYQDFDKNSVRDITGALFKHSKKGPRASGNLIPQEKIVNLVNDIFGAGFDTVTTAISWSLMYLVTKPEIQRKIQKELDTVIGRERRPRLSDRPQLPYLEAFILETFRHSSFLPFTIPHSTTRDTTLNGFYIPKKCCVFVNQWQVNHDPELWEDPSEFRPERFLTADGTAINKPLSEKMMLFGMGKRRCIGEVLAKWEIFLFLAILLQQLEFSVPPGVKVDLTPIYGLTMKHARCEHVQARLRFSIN
Experimental: (§1) The potential for CYP450 inhibition (CYP1A2, 2C9, 2C19, 2D6, and […]) was assessed using Promega P450-Glo^TM CYP450 assay systems. Luciferin-ME served as the substrate for CYP1A2, and the inhibitor α-naphthoflavone was used as a positive control. Luciferin-H was used as the substrate for CYP2C9, and the inhibitor sulfaphenazole was used as a positive control. Luciferin-H EGE was selected as the substrate for CYP2C19, whereas the inhibitor amitriptyline served as a positive control. Luciferin-ME EGE was used as the substrate for CYP2D6, whereas the inhibitor quinidine served as a positive control. Luciferin-BE was used as the substrate for CYP3A4, whereas the inhibitor ketoconazole was used as a positive control. The assays were performed using the excitation and emission wavelengths recommended by the manufacturer. Briefly, a CYP enzyme and a P450-Glo™ substrate were combined in potassium phosphate (0.1 M KPO4) buffer, with or without a test compound of interest, and […]. The reaction was initiated by adding two volumes of 2 times concentrated NADPH regeneration system. […] Luminescence was subsequently measured using a Tecan Infinite M1000 PRO microplate reader (Tecan Group Ltd., Switzerland). The percent inhibition was calculated relative to that of the positive control at a fixed concentration. […]

CYP2D6 = biological target: T2, CYP2D6 (Homo sapiens, UniProt P10635); assay: P450-Glo CYP inhibition assay, CYP2D6; type: in vitro ADME
T2 construct: purchased Promega V9890
T2 sequence (P10635 whole entry): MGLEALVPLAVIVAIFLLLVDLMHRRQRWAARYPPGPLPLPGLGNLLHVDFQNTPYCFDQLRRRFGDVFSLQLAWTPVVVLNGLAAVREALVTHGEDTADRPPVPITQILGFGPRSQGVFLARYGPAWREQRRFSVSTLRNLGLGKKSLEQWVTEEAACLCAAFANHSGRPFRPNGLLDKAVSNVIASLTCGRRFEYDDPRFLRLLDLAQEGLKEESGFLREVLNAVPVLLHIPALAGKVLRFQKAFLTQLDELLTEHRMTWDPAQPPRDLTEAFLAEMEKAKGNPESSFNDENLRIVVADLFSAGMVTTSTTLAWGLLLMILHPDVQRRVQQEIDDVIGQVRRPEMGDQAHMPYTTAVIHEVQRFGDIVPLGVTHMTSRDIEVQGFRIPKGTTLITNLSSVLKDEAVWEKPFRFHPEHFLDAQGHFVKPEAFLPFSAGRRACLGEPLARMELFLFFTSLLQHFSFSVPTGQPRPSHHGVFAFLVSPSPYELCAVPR
Experimental: as §1

[1] = test system: collagen-induced arthritis (CIA); assay: Murine model of collagen-induced arthritis (CIA); type: in vivo
Experimental: The in vivo efficacy of compound 8 was evaluated in a murine inflammatory model of collagen-induced arthritis (CIA). The study included four groups: a vehicle-treated control group and three treatment groups. The treatment groups comprised a dexamethasone-treated group, in which dexamethasone served as the positive control, and two treatment groups, in which animals were treated with compound 8 at doses of 10 and 50 mg/kg. Compound 8 was administered once daily for 15 days by oral gavage, and the in vivo efficacy was evaluated by measuring the clinical score and foot volume. […] There were no significant changes in the body weights of animals in all the treatment groups (data not shown) during treatment.
The animal study was approved by the Institutional Animal Care and Use Committee (IACUC) of the Korea Research Institute of Bioscience and Biotechnology on March 15, 2017, under approval number KRIBB-AEC-17090. Male DBA1/JNCrli mice (7 weeks old) were purchased from Japan CRL, Inc. The mice were housed in specific pathogen-free (SPF) conditions and were allowed ad libitum access to food and water. After 7 days of acclimatization, the mice were immunized with 0.05 mL of a type II collagen emulsion (Hooke Kit^TM Chicken Collagen, Cat. No. EK-0210 from Hooke) and Freund’s complete adjuvant by subcutaneous injection at 1.5 cm distal from the base of the tail. After 21 days, the immunized mice were administered a booster injection with 0.05 mL of a type II collagen emulsion (Hooke Kit^TM Chicken Collagen, Cat. No. EK-0211 from Hooke) and Freund’s incomplete adjuvant. The emulsions were prepared according to the manufacturer’s instructions. On day 21, the mice with CIA were randomized into four groups. The animals in the four groups were administered either 0.3 mg/kg dexamethasone (n = 5), 10 mg/kg compound 8 (n = 5), 50 mg/kg compound 8 (n = 5), or vehicle (n = 5), once a day, for […], orally. The vehicle, in which all test compounds were suspended, comprised DMAC (10%), Tween 80 (10%), and DW (80%). Clinical arthritis scores and body weights were assessed three times per week for 15 days. The paw volumes were measured using a LE7500 plethysmometer (Panlab, Barcelona, Spain) on days 0 and 42.

[2] = % inhibition of human CYP isozymes at 10 μM

C=CC(=O)O[C@H]1Cc2cc3ccc(=O)oc3cc2OC1(C)C [Compound 8, (7S)-(+)-Acrylic acid, 8,8-dimethyl-2-oxo-6,7-dihydro-2H,8H-pyrano [3,2-g]chromen-7-yl ester]
CYP1A2 inhibition (in words) (CYP1A2): rarely inhibited
CYP inhibition 1A2 (CYP1A2; [2]): <1%
CYP2D6 inhibition (in words) (CYP2D6): weakly inhibited
CYP inhibition 2D6 (CYP2D6; [2]): 18.9%
toxicity ([1]; mice with CIA, 10 and 50 mg/kg oral): no obvious toxicity
efficacy compared with dexamethasone ([1]; mice, 50 mg/kg oral, dexamethasone 0.3 mg/kg): comparable to that of dexamethasone at 0.3 mg/kg
clinical scores vs control ([1]; mice, 10 and 50 mg/kg, daily oral, t-test): differed significantly from those with the control
severity of CIA (clinical score and foot volume) ([1]; mice, 10 and 50 mg/kg, once daily, oral gavage, 15 days): significantly reduced the severity of CIA in a dose-dependent manner
